Measured values published in publication PMC4847013, “Pronounced peptide selectivity for melanoma through tryptophan end-tagging” (Scientific Reports, 2016).
Structures can show the parent of a compound that is named as a salt. Ends that are not written are not given here.

What was measured:
tumor cells = test system: tumor cells; set-up: method as in PMID 20876209, PMID 20406839; conditions: cited from earlier work
Source text: However, since it is taken up by tumor cells through passive diffusion, the overall response rate of doxorubicin is only about 30%[51][52].

fibroblasts = assay: Lactate dehydrogenase (LDH) assay; assay type: cell-based; conditions: 48 h, 1% FBS, LDH release relative to 1% Triton X-100, triplicate, Fig. 8a
erythrocytes = assay: Hemolysis assay; assay type: cell-based; conditions: 5% erythrocytes in PBS pH 7.4, 1 h, 37 °C, peptides 60 or 120 μM, % of 2% Triton X-100, triplicate, Fig. 8b
Procedure: EDTA-blood was centrifuged at 800 g for 10 min, whereafter plasma and buffy coat were removed. The erythrocytes were washed three times and resuspended to 5% in PBS, pH 7.4. The cells were then incubated with end-over-end rotation for 1 h at 37 °C in the presence of peptides (60 or 120 μM). 2% Triton X-100 (Sigma-Aldrich, St. Louis, USA) served as positive control. The samples were then centrifuged at 800 g for 10 min. The absorbance of hemoglobin release was measured at 540 nm and is expressed as % of Triton X-100 induced hemolysis. Results given represent mean values from triplicate measurements.

Row | Compound | overall response rate (tumor cells) | Concentration up to which no significant toxicity is seen (LDH release) (fibroblasts) | Concentration up to which hemolysis is very low, at the background level of the negative control (erythrocytes)
1 | COc1cccc2c1C(=O)c1c(O)c3c(c(O)c1C2=O)C[C@@](O)(C(=O)CO)C[C@@H]3O[C@H]1C[C@H](N)[C@H](O)[C@H](C)O1 [doxorubicin, Doxorubicin hydrochloride] | about 30% | – | –
2 | GRRPRPRPRP [GRR10] | – | at least 50 μM | at least 120 μM
3 | GRRPRPRPRPWWWW [GRR10W4] | – | at least 50 μM | at least 120 μM
